Values after ≈ are worked out from the molar mass of the structure shown. Like-named read-outs stand apart in the source and are kept apart here.
What was measured:
[1] = target: T1, full-length beta-Catenin (Uniprot ID P35222) (Homo sapiens, UniProt P35222); assay: Fluorescence polarization IC50 (beta-catenin / 5FAM-TCF4 10-53 competition); assay type: binding; details: fluorescence polarization
T1 construct: 10 nM full-length beta-Catenin (Uniprot ID P35222)
T1 sequence (P35222 1-781): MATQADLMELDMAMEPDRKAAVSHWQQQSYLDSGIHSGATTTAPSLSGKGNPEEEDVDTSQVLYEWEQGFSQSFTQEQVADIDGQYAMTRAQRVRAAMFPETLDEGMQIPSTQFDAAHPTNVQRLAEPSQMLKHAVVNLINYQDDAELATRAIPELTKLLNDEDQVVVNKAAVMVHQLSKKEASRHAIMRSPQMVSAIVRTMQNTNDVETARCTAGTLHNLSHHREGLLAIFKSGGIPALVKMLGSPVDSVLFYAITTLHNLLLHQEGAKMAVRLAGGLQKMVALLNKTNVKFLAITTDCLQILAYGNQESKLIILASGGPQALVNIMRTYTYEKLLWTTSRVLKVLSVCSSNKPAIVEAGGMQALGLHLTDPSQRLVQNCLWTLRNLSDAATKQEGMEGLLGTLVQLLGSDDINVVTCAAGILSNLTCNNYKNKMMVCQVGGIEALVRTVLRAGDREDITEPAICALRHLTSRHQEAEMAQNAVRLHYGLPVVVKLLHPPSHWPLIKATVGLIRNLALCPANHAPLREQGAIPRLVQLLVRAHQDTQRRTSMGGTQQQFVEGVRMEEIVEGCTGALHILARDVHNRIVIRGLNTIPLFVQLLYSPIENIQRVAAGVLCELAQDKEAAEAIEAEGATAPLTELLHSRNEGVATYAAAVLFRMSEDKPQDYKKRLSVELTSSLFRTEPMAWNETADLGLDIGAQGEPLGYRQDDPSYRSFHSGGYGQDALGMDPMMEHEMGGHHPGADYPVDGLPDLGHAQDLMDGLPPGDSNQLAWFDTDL

[2] = Solubility in PBS; assay type: physicochemical
Outline: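 PBS sample ultracentrifuged; supernatant run on HPLC vs. 50 μM peptide in DMSO standard. Solubility = (PBS peak area / DMSO peak area) × 50 uM.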

SMILES | IC50 ([1]; beta-catenin, read-out: FP EC50) [nM] | IC50 ([1]; read-out: beta-Catenin FP IC50) [nM] | Solubility [2] [µM] | Solubility ([2]; Solubility (uM)) [µM]
CC(C)C[C@@H]1NC(=O)[C@H](Cc2ccccc2)NC(=O)[C@H](C)NC(=O)[C@H](C)NC(=O)[C@H](CC(=O)O)NC(=O)[C@H](CC(=O)O)NC(=O)C2(CCCC=CCCCOC(=O)N3CC[C@@](C(=O)N[C@@H](Cc4ccccc4)C(=O)N[C@@H](Cc4csc5ccccc45)C(=O)N[C@@H](CCC(N)=O)C(N)=O)(C3)NC1=O)CCCC=CC[C@]1(CCCN1C(=O)CCCN(C)C)C(=O)N[C@@H](CC(=O)O)C(=O)N[C@@H](CC(C)(C)C)C(=O)N2 (stereo partly drawn) [I-1358, NdiMeButC-PL3-Asp-Npg-B5-Asp-Asp-Ala-Ala-Phe-Leu-PyrS2-Phe-BztA-Gln-NH2] | 19 | 19 | 10 (≈ 19.8 µg/mL) | 
CC(=O)N1CCC[C@]12CC=CCCCC1(CCCC=CCCCOC(=O)N3CC[C@@](C(=O)N[C@@H](Cc4ccsc4)C(=O)N[C@@H](Cc4csc5ccccc45)C(=O)N[C@@H](CCC(N)=O)C(N)=O)(C3)NC(=O)[C@H](CC(C)C)NC(=O)[C@H](Cc3ccccc3)NC(=O)[C@H](C)NC(=O)[C@H](C)NC(=O)[C@H]([C@@H](C)O)NC(=O)[C@H](CC(=O)O)NC1=O)NC(=O)[C@H](CC1CCCCC1)NC(=O)[C@H](CC(=O)O)NC2=O (stereo partly drawn) [I-1174, Ac-PL3-Asp-Cha-B5-Asp-Thr-Ala-Ala-Phe-Leu-PyrS2-3Thi-BztA-Gln-NH2] |  | 43 | 10 (≈ 19.3 µg/mL) | 
CC(=O)N1CCC[C@]12CC=CCCCC1(CCCC=CCCCOC(=O)N3CC[C@@](C(=O)N[C@@H](Cc4ccccc4Cl)C(=O)N[C@@H](Cc4csc5ccccc45)C(=O)N[C@@H](CCC(N)=O)C(N)=O)(C3)NC(=O)[C@H](CC(C)C)NC(=O)[C@H](Cc3ccccc3)NC(=O)[C@H](C)NC(=O)[C@H](C)NC(=O)[C@H]([C@@H](C)O)NC(=O)[C@H](CC(=O)O)NC1=O)NC(=O)[C@H](CC(C)(C)C)NC(=O)[C@H](CC(=O)O)NC2=O (stereo partly drawn) [I-1169, Ac-PL3-Asp-Npg-B5-Asp-Thr-Ala-Ala-Phe-Leu-PyrS2-2C1F-BztA-Gln-NH2] |  | 159 | 10 (≈ 19.3 µg/mL) | 
CC(=O)N1CCC[C@]12CC=CCCCC1(CCCC=CCCCCCC[C@@](C)(C(=O)N[C@@H](Cc3ccccc3Cl)C(=O)N[C@@H](Cc3csc4ccccc34)C(=O)N[C@@H](Cc3c[nH]nn3)C(N)=O)NC(=O)[C@H](CC(C)C)NC(=O)[C@H](Cc3ccccc3)NC(=O)[C@H](C)NC(=O)[C@H](C)NC(=O)[C@H](CC(=O)O)NC(=O)[C@H](CC(=O)O)NC1=O)NC(=O)[C@H](CC(C)(C)C)NC(=O)[C@H](CC(=O)O)NC2=O (stereo partly drawn) [I-1192, Ac-PL3-Asp-Npg-B5-Asp-Asp-Ala-Ala-Phe-Leu-S8-2C1F-BztA-4TriA-NH2] |  | 81.5 | 10 (≈ 19.1 µg/mL) | 
CC(=O)N1CCC[C@H]1C(=O)N[C@@H](CC(=O)O)C(=O)N[C@@H](CC1CCCCC1)C(=O)N[C@]1(C)CCCC=CCCCOC(=O)N2CC[C@@](C(=O)N[C@@H](Cc3ccccc3Cl)C(=O)N[C@@H](Cc3csc4ccccc34)C(=O)N[C@@H](CO)C(N)=O)(C2)NC(=O)[C@H]([C@@H](C)O)NC(=O)[C@H](Cc2ccccc2)NC(=O)[C@H](C)NC(=O)[C@H](C)NC(=O)[C@H](CC(=O)O)NC(=O)[C@H](CC(=O)O)NC1=O [I-1184, Ac-Pro-Asp-Cha-R5-Asp-Asp-Ala-Ala-Phe-Thr-PyrS2-2C1F-BztA-Ser-NH2] |  | 176 |  | 45 (≈ 83.4 µg/mL)
CC(=O)N1CCC[C@]12CC=CCCCC1(CCCC=CCCCOC(=O)N3CC[C@@](C(=O)N[C@@H](Cc4ccccc4Cl)C(=O)N[C@@H](Cc4csc5ccccc45)C(=O)N[C@H](CO)[C@@H](C)O)(C3)NC(=O)[C@H](CC(C)C)NC(=O)[C@H](Cc3ccccc3)NC(=O)[C@H](C)NC(=O)[C@H](CCCCNC(C)C)NC(=O)[C@H](CC(=O)O)NC(=O)[C@H](CC(=O)O)NC1=O)NC(=O)[C@H](CC(C)(C)C)NC(=O)[C@H](CC(=O)O)NC2=O (stereo partly drawn) [I-1313, Ac-PL3-Asp-Npg-B5-Asp-Asp-iPrLys-Ala-Phe-Leu-PyrS2-2C1F-BztA-Thro1] |  | 12 | 10 (≈ 20 µg/mL) | 
CC(=O)N1CCC[C@]12CC=CCCCC1(CCCC=CCCCOC(=O)N3CC[C@@](C(=O)N[C@@H](Cc4ccsc4)C(=O)N[C@@H](Cc4csc5ccccc45)C(=O)N[C@H](CO)[C@@H](C)O)(C3)NC(=O)[C@H]([C@@H](C)O)NC(=O)[C@H](Cc3ccccc3)NC(=O)[C@H](C)NC(=O)[C@H](C)NC(=O)[C@H](CC(=O)O)NC(=O)[C@H](CC(=O)O)NC1=O)NC(=O)[C@H](CC(C)(C)C)NC(=O)[C@H](CC(=O)O)NC2=O (stereo partly drawn) [I-1306, Ac-PL3-Asp-Npg-B5-Asp-Asp-Ala-Ala-Phe-Thr-PyrS2-3Thi-BztA-Thro1] |  | 6 | 50 (≈ 93.3 µg/mL) | 
CC(=O)N1CCC[C@H]1C(=O)N[C@@H](CC(=O)O)C(=O)N[C@@H](CC(C)(C)C)C(=O)N[C@]1(C)CCCC=CCCCOC(=O)N2CC[C@@](C(=O)N[C@@H](Cc3ccccc3Cl)C(=O)N[C@@H](Cc3csc4ccccc34)C(=O)N[C@@H](CCC(N)=O)C(N)=O)(C2)NC(=O)[C@H](CC(N)=O)NC(=O)[C@H](Cc2ccccc2)NC(=O)[C@H](C)NC(=O)[C@H](C)NC(=O)[C@H](CC(=O)O)NC(=O)[C@H](CC(=O)O)NC1=O [I-1183, Ac-Pro-Asp-Npg-R5-Asp-Asp-Ala-Ala-Phe-Asn-PyrS2-2C1F-BztA-Gln-NH2] |  | 409 | 50 (≈ 94 µg/mL) | 
CC(=O)N1CCC[C@]12CC=CCCCC1(CCCC=CCCCCCC[C@@](C)(C(=O)N[C@@H](Cc3ccccc3Cl)C(=O)N[C@@H](Cc3csc4ccccc34)C(=O)N[C@@H](CCO)C(N)=O)NC(=O)[C@H](CC(C)C)NC(=O)[C@H](Cc3ccccc3)NC(=O)[C@H](C)NC(=O)[C@H](C)NC(=O)[C@H](CC(=O)O)NC(=O)[C@H](CC(=O)O)NC1=O)NC(=O)[C@H](CC(C)(C)C)NC(=O)[C@H](CC(=O)O)NC2=O (stereo partly drawn) [I-1196, Ac-PL3-Asp-Npg-B5-Asp-Asp-Ala-Ala-Phe-Leu-S8-2C1F-BztA-Hse-NH2] |  | 85 | 10 (≈ 18.8 µg/mL) | 
CC(=O)N1CCC[C@]12CC=CCCCC1(CCCC=CCCCOC(=O)N3CC[C@@](C(=O)N[C@@H](Cc4ccccc4Cl)C(=O)N[C@@H](Cc4csc5ccccc45)C(=O)N[C@@H](CCC(N)=O)C(N)=O)(C3)NC(=O)[C@H](CO)NC(=O)[C@H](Cc3ccccc3)NC(=O)[C@H](CC(C)C)NC(=O)[C@H](CC(C)C)NC(=O)[C@H](CC(=O)O)NC(=O)[C@H](CC(=O)O)NC1=O)NC(=O)[C@H](CC1CCCCC1)NC(=O)[C@H](CC(=O)O)NC2=O (stereo partly drawn) [I-1149, Ac-PL3-Asp-Cha-B5-Asp-Asp-Leu-Leu-Phe-Ser-PyrS2-2C1F-BztA-Gln-NH2] |  | 70 | 10 (≈ 20.3 µg/mL) | 
CC(=O)N1CCC[C@]12CC=CCCCC1(CCCC=CCCCOC(=O)N3CC[C@@](C(=O)N[C@@H](Cc4ccsc4)C(=O)N[C@@H](Cc4csc5ccccc45)C(=O)N[C@@H](CCC(N)=O)C(N)=O)(C3)NC(=O)[C@H](CC(C)C)NC(=O)[C@H](Cc3ccccc3)NC(=O)[C@H](C)NC(=O)[C@H](C)NC(=O)[C@H](CC(=O)O)NC(=O)[C@H](CCC(N)=O)NC1=O)NC(=O)[C@H](CC(C)(C)C)NC(=O)[C@H](CC(=O)O)NC2=O (stereo partly drawn) [I-1211, Ac-PL3-Asp-Npg-B5-Gln-Asp-Ala-Ala-Phe-Leu-PyrS2-3Thi-BztA-Gln-NH2] |  | 115 |  | 11 (≈ 21.2 µg/mL)
CC(=O)N1CCC[C@]12CC=CCCCC1(CCCC=CCCCOC(=O)N3CC[C@@](C(=O)N[C@@H](Cc4ccsc4)C(=O)N[C@@H](Cc4csc5ccccc45)C(=O)N[C@@H](CCC(N)=O)C(N)=O)(C3)NC(=O)[C@H](CC(N)=O)NC(=O)[C@H](Cc3ccccc3)NC(=O)[C@H](C)NC(=O)[C@H](C)NC(=O)[C@H](CC(=O)O)NC(=O)[C@H](CCC(N)=O)NC1=O)NC(=O)[C@H](CC(C)(C)C)NC(=O)[C@H](CC(=O)O)NC2=O (stereo partly drawn) [I-1210, Ac-PL3-Asp-Npg-B5-Gln-Asp-Ala-Ala-Phe-Asn-PyrS2-3Thi-BztA-Gln-NH2] |  | 56 | 50 (≈ 96.6 µg/mL) | 
CC(=O)N1CCC[C@]12CC=CCCCC1(CCCC=CCCCOC(=O)N3CC[C@@](C(=O)N[C@@H](Cc4ccccc4)C(=O)N[C@@H](Cc4csc5ccccc45)C(=O)N[C@H](C(N)=O)[C@@H](C)O)(C3)NC(=O)[C@H](CC(C)C)NC(=O)[C@H](Cc3ccccc3)NC(=O)[C@H](C)NC(=O)[C@H](CCCCNC(C)C)NC(=O)[C@H]([C@@H](C)O)NC(=O)[C@H](CC(N)=O)NC1=O)NC(=O)[C@H](C)NC(=O)[C@H](CC(=O)O)NC2=O (stereo partly drawn) [I-1378, Ac-PL3-Asp-Ala-B5-Asn-Thr-iPrLys-Ala-Phe-Leu-PyrS2-Phe-BztA-Thr-NH2] |  | 6170 | 10 (≈ 19.1 µg/mL) | 
CC(=O)N1CCC[C@]12CC=CCCCC1(CCCC=CCCCOC(=O)N3CC[C@@](C(=O)N[C@@H](Cc4ccccc4)C(=O)N[C@@H](Cc4csc5ccccc45)C(=O)N[C@@H](CCC(N)=O)C(N)=O)(C3)NC(=O)[C@H](CC(C)C)NC(=O)[C@H](Cc3ccccc3)NC(=O)[C@H](C)NC(=O)[C@H](CCCCNC(C)C)NC(=O)[C@H](CCC(N)=O)NC(=O)[C@H](CC(N)=O)NC1=O)NC(=O)[C@H](C)NC(=O)[C@H](CC(=O)O)NC2=O (stereo partly drawn) [I-1379, Ac-PL3-Asp-Ala-B5-Asn-Gln-iPrLys-Ala-Phe-Leu-PyrS2-Phe-BztA-Gln-NH2] |  | 1440 | 10 (≈ 19.7 µg/mL) | 
